The values that follow come from US7291641B2, “Derivatives of heterocycles with 5 members, their preparation and their use as medicaments” (Societe de Conseils de Recherches et d'Applications …, priority 1999, dated 2007).

For orientation: melting point means the temperature, or range, at which the solid turns liquid.

Structures can show the parent of a compound that is named as a salt.

In the case of `CCCCCCC(NCc1ccccc1)c1nc(-c2ccc(C)cc2)c[nH]1` (racemic) (as salt: hydrochloride) [Example 200, (R,S)-N-benzyl-1-[4-(4-methylphenyl)-1H-imidazol-2-yl]-1-heptanamine], the melting point was 185 to 188 °C. For the molecule `CCCCCCC(NC1CCC1)c1nc(-c2ccc(F)cc2)c[nH]1` (racemic) (as salt: hydrochloride) [Example 84, (R,S)-N-{1-[4-(4-fluorophenyl)-1H-imidazol-2-yl]heptyl}-cyclobutanamine], the melting point is 144 to 146 °C.

Regarding `CCCCOC(=O)NCCc1nc(-c2ccc(-c3ccc(C(F)(F)F)cc3)cc2)c[nH]1` [Example 452, butyl 2-{4-[41-(trifluoromethyl)-1,1′-biphenyl-4-yl]-1H-imidazol-2-yl}ethylcarbamate], the melting point is 168.5 °C. Consider `c1ccc(CN[C@H](Cc2csc3ccccc23)c2nc(-c3ccccc3)c[nH]2)cc1` [Example 111, (1R)-2-(1-benzothien-3-yl)-N-benzyl-1-(4-phenyl-1H-imidazol-2-yl)ethanamine], for which the melting point fell in the range of 152 to 154 °C. To `CC(C)(C)c1cc(-c2c[nH]c([C@@H](N)C3CCCCC3)n2)cc(C(C)(C)C)c1O` (as salt: hydrochloride) [Example 316, 4-{2-[(S)-amino(cyclohexyl)methyl]-1H-imidazol-4-yl}-2,6-ditert-butylphenol] belongs 222 to 228 °C; to `CCCCCCC(NCC(C)C)c1nc(-c2ccccc2)c[nH]1` (racemic) (as salt: acetate) [Example 234, (R,S)-N-isobutyl-1-(4-phenyl-1H-imidazol-2-yl)-1-heptanamine], 70 to 72 °C; to `CCCCOC(=O)NCCc1nc(-c2ccc(CC(C)C)cc2)c[nH]1` [Example 445, butyl 2-[4-(4-isobutylphenyl)-1H-imidazol-2-yl]ethylcarbamate], 95.5 °C.

Consider `CCCCS(=O)(=O)NCCc1nc(-c2ccc(-c3ccccc3)cc2)c[nH]1` [Example 33, N-[2-(4-[1,1′-biphenyl]-4-yl-1H-imidazol-2-yl)ethyl]-1-butanesulphonamide], for which the melting point turned out to be 168.5 °C. To `Fc1ccc(-c2c[nH]c([C@@H](CC3CCCCC3)NC3CCCCC3)n2)cc1` [Example 309, N-{(1R)-2-cyclohexyl-1-[4-(4-fluorophenyl)-1H-imidazol-2-yl]ethyl}cyclohexanamine] belongs 217 to 218 °C. To `Fc1ccc(-c2c[nH]c([C@@H](Cc3ccccc3)NC3CCCCC3)n2)cc1` (as salt: hydrochloride) [Example 327, N-{(1R)-1-[4-(4-fluorophenyl)-1H-imidazol-2-yl]-2-phenylethyl}cyclohexanamine] belongs 210 to 213 °C; to `O=C(NCCc1nc(-c2ccc(-c3ccccc3)cc2)c[nH]1)OCCCC(F)(F)F` [Example 345, 4,4,4-trifluorobutyl 2-[4-(1,1′-biphenyl-4-yl)-1H-imidazol-2-yl]ethylcarbamate], 157.3 °C; to `c1ccc(-c2c[nH]c([C@@H](NCC3CCCCC3)C3CCCCC3)n2)cc1` (as salt: hydrochloride) [Example 265, (S)-cyclohexyl-N-(cyclohexylmethyl)(4-phenyl-1H-imidazol-2-yl)methanamine], 180 to 182 °C. To `CCCCCCC(NCc1ccccc1)c1nc(-c2cccc(OC)c2)c[nH]1` (racemic) [Example 216, (R,S)-N-benzyl-1-[4-(3-methoxyphenyl)-1H-imidazol-2-yl]-1-heptanamine] belongs 141 to 142 °C; to `Cc1[nH]c(CN(C)C(=O)OC(C)(C)C)nc1-c1ccccc1` [Example 153, tert-butyl methyl[(5-methyl-4-phenyl-1H-imidazol-2-yl)methyl]carbamate], 70 to 72 °C; to `N[C@H](CCc1ccccc1)c1nc(-c2ccccc2)c[nH]1` (as salt: hydrochloride) [Example 131, (1R)-3-phenyl-1-(4-phenyl-1H-imidazol-2-yl)-1-propanamine], 174 to 176 °C. Molecule `CN(Cc1ccccc1)Cc1nc(-c2cc(C(C)(C)C)c(O)c(C(C)(C)C)c2)cs1` [Example 7, 4-(2-{[benzyl(methyl)amino]methyl}-1,3-thiazol-4-yl)-2,6-di(tert-butyl)phenol] returned a melting point of 165 to 170 °C. To `CC(C)COC(=O)NCCc1nc(-c2ccc(-c3ccc(Br)cc3)cc2)c[nH]1` [Example 338, isobutyl 2-[4-(4′-bromo-1,1′-biphenyl-4-yl)-1H-imidazol-2-yl]ethylcarbamate] belongs 158.7 °C. To `N[C@H](Cc1ccccc1)c1nc(-c2ccc(F)cc2)c[nH]1` (as salt: hydrochloride) [Example 324, (1R)-1-[4-(4-fluorophenyl)-1H-imidazol-2-yl]-2-phenylethanamine] belongs 173 to 180 °C.

For `CC(C)(C)c1cc(-c2c[nH]c(CCNC(=O)OCC3CCCCC3)n2)cc(C(C)(C)C)c1O` (as salt: hydrochloride) [Example 329, cyclohexylmethyl 2-[4-(3,5-ditert-butyl-4-hydroxyphenyl)-1H-imidazol-2-yl]ethylcarbamate], the melting point turned out to be 111.5 °C. For `CC(C)(C)OC(=O)N[C@H](Cc1c[nH]c2ccccc12)c1nc(C(C)(C)C)c[nH]1` [Example 50, tert-butyl (1R)-1-(4-tert-butyl-1H-imidazol-2-yl)-2-(1H-indol-3-yl)-ethylcarbamate], the melting point is 104 to 106 °C. To `c1ccc(-c2c[nH]c([C@@H](NCC3CC3)C3CCCCC3)n2)cc1` (as salt: hydrochloride) [Example 267, (S)-cyclohexyl-N-(cyclopropylmethyl)(4-phenyl-1H-imidazol-2-yl)methanamine] belongs 151 to 152 °C; to `CC(C)C[C@@H](NC(=O)OC(C)(C)C)c1nc(-c2ccccc2)c[nH]1` [Example 124, tert-butyl (1R)-3-methyl-1-(4-phenyl-1H-imidazol-2-yl)butylcarbamate], 88 to 90 °C. To `NCc1nc(-c2ccccc2)c(-c2ccccc2)[nH]1` (as salt: hydrochloride) [Example 160, (4,5-diphenyl-1H-imidazol-2-yl)methanamine] belongs 210 to 212 °C; to `CN(Cc1ccccc1)Cc1nc(-c2ccc(-c3ccccc3)cc2)c[nH]1` [Example 42, N-benzyl(4-[1,1′-biphenyl]-4-yl-1H-imidazol-2-yl)-N-methylmethanamine], 106 to 108 °C. As for `CNCc1nc(-c2ccccc2)c(-c2ccccc2)[nH]1` (as salt: hydrochloride) [Example 162, (4,5-diphenyl-1H-imidazol-2-yl)-N-methylmethanamine], the melting point was in the range of 198 to 200 °C.

`c1ccc(CC[C@@H](NCc2ccccc2)c2nc(-c3ccccc3)c[nH]2)cc1` [Example 135, (1R)-N-benzyl-3-phenyl-1-(4-phenyl-1H-imidazol-2-yl)-1-propanamine]: the melting point was 142 to 144 °C. To `c1ccc(CNCc2nc(-c3ccc(-c4ccccc4)cc3)c[nH]2)cc1` (as salt: hydrochloride) [Example 168, N-benzyl(4-[1,1′-biphenyl]4-yl-1H-imidazol-2-yl)methanamine] belongs over 250 °C. On to `CCCCCCNCCc1nc(-c2ccc(-c3ccccc3)cc2)c[nH]1` [Example 176, N-[2-(4-[1,1′-biphenyl]-4-yl-1H-imidazol-2-yl)ethyl]-1-hexanamine], for which the melting point was 152 to 154 °C.

In the case of `CCCCCCC(NC1CCCCC1)c1nc(C2CCCCC2)c[nH]1` (centres unmarked) [Example 36, N-[1-(4-cyclohexyl-1H-imidazol-2-yl)heptyl]cyclohexanamine], the melting point lay in the range of 172 to 174 °C. To `CCCCCCC(N)c1nc(-c2ccc(Cl)c(Cl)c2)c[nH]1` (racemic) (as salt: hydrochloride) [Example 231, (R,S)-1-[4-(3,4-dichlorophenyl)-1H-imidazol-2-yl]-1-heptanamine] belongs 148 to 150 °C. To `CC(C)Cc1ccc(-c2c[nH]c(CCNC(=O)OCc3ccccc3)n2)cc1` [Example 446, benzyl 2-[4-(4-isobutylphenyl)-1H-imidazol-2-yl]ethylcarbamate] belongs 125.2 °C. Molecule `O=C(NCCc1nc(-c2ccc(F)cc2)c[nH]1)OCC1CCC1` [Example 286, cyclobutylmethyl 2-[4-(4-fluorophenyl)-1H-imidazol-2-yl]ethylcarbamate] gave a melting point of 149 to 150 °C.

Take `CCOC(=O)NCCc1nc(-c2ccc(-c3ccccc3)cc2)c[nH]1` [Example 246, 4-(2-{2-[(ethoxycarbonyl)amino]ethyl}-1H-imidazol-4-yl)-1,1′-biphenyl]: the melting point was 132.5 °C. Molecule `CC(C)(C)OC(=O)N[C@H](CCc1ccccc1)c1nc(-c2ccccc2)c[nH]1` [Example 129, tert-butyl (1R)-3-phenyl-1-(4-phenyl-1H-imidazol-2-yl)propylcarbamate] came in with a melting point of 72 to 74 °C.

Consider `CCC[C@@H](NC(=O)OC(C)(C)C)c1nc(-c2ccc(-c3ccccc3)cc2)c[nH]1` [Example 208, 4-(2-{(1R)-1-[(tert-butoxycarbonyl)amino]butyl}-1H-imidazol-4-yl)-1,1′-biphenyl], for which the melting point was 145.6 °C. To `FC(F)(F)c1cccc(-c2c[nH]c([C@@H](NCC3CCCCC3)C3CCCCC3)n2)c1` (as salt: hydrochloride) [Example 307, (S)-1-cyclohexyl-N-(cyclohexylmethyl)-1-{4-[3-(trifluoromethyl)-phenyl]-1H-imidazol-2-yl}methanamine] belongs 198 to 200 °C; to `CC(C)(C)c1cc(-c2c[nH]c([C@@H](NCC3CCCCC3)C3CCCCC3)n2)cc(C(C)(C)C)c1O` (as salt: hydrochloride) [Example 291, 2,6-ditert-butyl-4-(2-{(S)-cyclohexyl[(cyclohexylmethyl)amino]-methyl}-1H-imidazol-4-yl)phenol], 254.6 °C. To `c1ccc(CN[C@H](CC2CCCCC2)c2nc(-c3ccc(-c4ccccc4)cc3)c[nH]2)cc1` [Example 169, (1R)-N-benzyl-1-(4-[1,1′-biphenyl]-4-yl-1H-imidazol-2-yl)-2-cyclohexylethanamine] belongs 233 to 238 °C.
